Data reported in patent US20190133997A1, “ARTEMISININ ANALOG, AND USE, METHOD, AND COMPOSITION FOR PROMOTING LIPID CATABOLISM AND IMPROVING SUGAR METABOLISM” (FUDAN UNIVERSITY, priority 2016, published 2019).

Key:
BMP4-directed C3H10T1/2 = assay: Artemether on BMP4-directed C3H10T1/2 differentiation (morphology, Western blot, MitoTracker Green); format: cell-based
Protocol: 7.5×10^5 C3H10T1/2 were seeded in a 3.5 cm cell culture dish, and cultured for 3-5 days in a maintenance medium. On the next day of seeding, BMP4 (at a final concentration of 20 ng/ml) was added to the medium to allow the cells to proliferate to contact inhibition. Two days after the contact inhibition was reached, the medium was changed to induced differentiation medium, and the induced mixture (0.5 mMol/L Mix, 1 μMol/L Dex, 1 ng/ml insulin, 100 nMol/L indometacin, 1 nM T3) was added at the same time. This day was defined as Day 0 of differentiation. After 2 days of induction, fresh induced differentiation medium was replaced, and 1 ng/ml insulin and 1 nMol/L T3 were added. After another 2 days of culture, the fresh medium was replaced every other day until the culture was differentiated to Day 8 at which time the cells were mature. At this time, the differentiated and mature cells were white adipocytes.
7.5×10^5 C3H10T1/2 were seeded in a 3.5 cm cell culture dish, and cultured for 3-5 days in a maintenance medium. On the next day of seeding, BMP7 (at a final concentration of 100 ng/ml) was added to the medium to allow the cells to proliferate to contact inhibition. Two days after the contact inhibition was reached, the medium was changed to induced differentiation medium, and the induced mixture (0.5 mM Mix, 1 μM Dex, 1 ng/ml insulin, 100 nM indometacin, 1 nM T3) was added at the same time. This day was defined as Day 0 of differentiation. After 2 days of induction, fresh induced differentiation medium was replaced, and 1 ng/ml insulin and 1 nM T3 were added. After another 2 days of culture, the fresh medium was replaced every other day until the culture was differentiated to Day 8 at which time the cells were mature. At this time, the cells differentiated to mature were brown adipocytes.
On Day 0 of differentiation, that is, when the induced differentiation mixture was added, the compound was added to the medium at a storage concentration of 10 mMol/L, and the final concentrations were […], respectively. When the fresh medium was replaced, the corresponding compound was supplemented, and the compound was always with the cells until the cells differentiated to mature.
C3H10T1/2 differentiated to mature was induced in a 3.5 cm culture dish, with the method of differentiation referring to Method 2.4.1. 300 μl Trizol was added to fully lyse the cells, and the lysate was transferred into a 1.5 ml centrifuge tube and heated at 100° C. for 10 min. The lysate was centrifuged at 13000 g for 10 min at 4° C., the lipid in the upper layer was removed, and the clarified lysate in the middle layer was transferred into a new centrifuge tube. 2.5 μl lysate was taken and quantified by BCA method, and 200 μl lysate was mixed with 50 μl loading buffer, heated at 100° C. for 10 min, and stored at −20° C. until use.
[…] C3HOT1/2 protein was loaded onto 10% polyacrylamide gel, and electrophoresis was carried out, with electrophoresis being carried out on base gel at 80V, and on separating gel at 100V, until the target band was separated. The protein was transferred to a PVDF membrane in an ice bath at 100 V for 100 min. After the transfer was completed, it was blocked for 1 hr in 5% skim milk prepared with TBST (TBS buffer+0.5% Tween), and incubated with specific antibodies overnight at 4° C. The next day, the PVDF membrane was washed three times with TBST at room temperature for 10 min, incubated with the corresponding secondary antibody at room temperature for 1 hr, then washed three times with TBST at the same condition as that of primary antibody, incubated with chemiluminescent reagent at room temperature for 1 min, detected with ImageQuant LAS4000 Mini Automatic chemiluminescence apparatus and exposed, and the results were recorded.
C3H10T1/2 differentiated to mature was induced in a 3.5 cm culture dish. The medium was removed and 1 ml PBS was added. […]

high fat-fed mice = assay: Intraperitoneal artemether, cold exposure and UCP1 immunohistochemistry of subcutaneous fat in high fat-fed mice; format: in vivo, Male C57BL/6J mice; details: high-fat diet, intraperitoneal 20 mg/kg twice a week, eight weeks
Protocol: The mice were breeded in the SPF animal laboratory of the Laboratory Animal Center of Fudan University at a room temperature of 21° C.-23° C. with a 12-hour light/dark cycle. […] When the mice were grown to 8-week old, they were randomly divided into a control group and an administration group, with 8 mice in each group. While the mice were fed with a high-fat diet, artemether was injected intraperitoneally. Artemether for intraperitoneal injection was stored at 4° C. in coconut oil at a storage concentration of 6 mg/ml (20 mMol/L), and protected from light. Mice in administration group were injected with artemether at a dose of 20 mg/kg weight. Administration was twice a week for eight weeks. Mice were fasted and housed in a breeding box at 4° C. The rectal temperature was measured every 2 hours. The mice were sacrificed by cervical dislocation after 6 hours, and the inguinal fat was removed for histological analysis. The histological analysis including tissue fixation, paraffin embedding, sectioning and immunohistochemistry experiment of UCP1 was commissioned by Shanghai Saige Biotech Co., Ltd.

[1] = Intraperitoneal artemether, growth of healthy mice on normal diet; format: in vivo, Male C57BL/6J mice; details: intraperitoneal 20 mg/kg twice a week, eight weeks, vs control
Protocol: The mice were breeded in the SPF animal laboratory of the Laboratory Animal Center of Fudan University at a room temperature of 21° C.-23° C. with a 12-hour light/dark cycle. When the mice were grown to 8-week old, they were randomly divided into a control group and an administration group, with 8 mice in each group. Mice in administration group were injected intraperitoneally with artemether. Artemether for intraperitoneal injection was stored at 4° C. in coconut oil at a storage concentration of 6 mg/ml (20 mMol/L), and protected from light. Mice in administration group were injected with artemether at a dose of 20 mg/kg weight. Mice in control group were injected with 100 μl coconut oil. Administration was twice a week for eight weeks and the weight of the mice was recorded weekly.

[2] = rodent models, high concentrations; no clear evidence of dose and timing; cited from earlier work
[3] = artemether 5, 10, 15 Mol/L, Western blot, β-actin reference, concentration-dependent tendency

CO[C@H]1O[C@@H]2O[C@@]3(C)CC[C@H]4[C@H](C)CC[C@@H]([C@H]1C)[C@@]24OO3 [artemether]
protein level of PGC1α (BMP4-directed C3H10T1/2; [3]): increased | protein level of PRDM16 (BMP4-directed C3H10T1/2; [3]): increased | protein level of UCP1 (BMP4-directed C3H10T1/2; [3]): increased | protein level of CytoC (BMP4-directed C3H10T1/2; artemether 5, 10, 15 μMol/L, Western blot, β-actin reference, concentration-dependent tendency): increased | mitochondrial biosynthesis (MitoTracker Green) (BMP4-directed C3H10T1/2; artemether 15 μMol/L): significantly enhanced | cell morphology of BMP4-directed C3H10T1/2 (BMP4-directed C3H10T1/2; artemether 15 μMol/L during differentiation, similar to BMP7-directed cell morphology): exhibited brown fat-like characteristics | body temperature in an environment of 4° C. (high fat-fed mice): significantly higher than that of mice in control group | UCP1 expression in subcutaneous fat (immunohistochemistry) (high fat-fed mice; after 6 hours at 4° C.): exhibited significant UCP1 expression | weight gain of healthy mice [1]: not significantly different | weight of healthy mice [1]: no difference | anorexia nervosa [2]: would cause anorexia nervosa
